Source: patent US20110081315A1, “NOVEL MACROCYCLIC INHIBITORS OF HEPATITIS C VIRUS REPLICATION” (INTERMUNE, INC., priority 2009, published 2011)
Read-outs that look alike come from different tables or passages of the source.

Key:
NS3/NS4 complexes = NS3/NS4 complexes (Hepatitis C virus genotype 1a, UniProt P27958); test: NS3/NS4 inhibition assay (IC50); format: biochemical; settings: NS3/NS4 activity; 23° C., 25 μM NS4A peptide
Text: (§1) NS3-NS4 inhibition activity can be determined using known assay methods. For example, NS3/NS4 complexes may be formed and inhibitory concentrations of test compounds determined as described in U.S. Patent Application Publication Number 2007/0054842 paragraph numbers 1497-1509, which is incorporated herein by reference in its entirety. Similarly, hepatitis C replicon EC50 may be determined using known assay methods such as described in U.S. Patent Application Publication Number 2007/0054842 paragraph numbers 1510-1515, which is incorporated herein by reference in its entirety. Assays may be conducted at ambient temperature (23° C.) in assay buffer containing 50 mM Tris-HCl, pH 7.5, 15% glycerol, 0.6 mM Lauryldimethylamine Oxide (LDAO), 25 μM NS4A peptide, and 10 mM Dithiothreitol (DTT).

hepatitis C replicon = hepatitis C replicon EC50 assay; format: cell-based; settings: Hepatitis C virus
Text: as §1

[1] = hepatitis C replicon, read-out: EC50

NS3/NS4 complexes, sequence (P27958 1027-1657, one chain of several): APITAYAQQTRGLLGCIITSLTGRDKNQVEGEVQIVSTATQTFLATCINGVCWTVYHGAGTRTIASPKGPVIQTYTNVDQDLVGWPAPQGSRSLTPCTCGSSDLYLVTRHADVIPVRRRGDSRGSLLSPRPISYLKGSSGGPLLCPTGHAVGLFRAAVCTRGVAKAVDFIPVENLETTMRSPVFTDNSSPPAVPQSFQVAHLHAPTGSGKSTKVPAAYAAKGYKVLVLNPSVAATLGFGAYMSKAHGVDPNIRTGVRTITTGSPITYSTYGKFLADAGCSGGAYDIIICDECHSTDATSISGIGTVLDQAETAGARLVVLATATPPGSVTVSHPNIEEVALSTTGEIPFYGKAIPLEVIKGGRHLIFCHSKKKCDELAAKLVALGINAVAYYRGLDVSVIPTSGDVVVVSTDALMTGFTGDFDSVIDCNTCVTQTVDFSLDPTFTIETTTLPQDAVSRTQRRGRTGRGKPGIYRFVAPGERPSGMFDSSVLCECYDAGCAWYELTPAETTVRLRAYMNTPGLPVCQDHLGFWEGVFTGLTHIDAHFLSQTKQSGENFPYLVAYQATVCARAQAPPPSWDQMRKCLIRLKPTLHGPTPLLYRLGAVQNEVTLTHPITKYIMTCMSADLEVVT

| Structure (SMILES) | IC50 (NS3/NS4 complexes) [nM] | EC50 (hepatitis C replicon; [1]) [nM] | EC50 (hepatitis C replicon) [nM] |
| --- | --- | --- | --- |
| CC(C)n1c(O[C@@H]2C[C@H]3C(=O)N[C@]4(C(=O)O)C[C@H]4/C=C\CCCCC[C@H](NC(=O)OC(C)(C)C)C(=O)N3C2)nc2ccccc21 [Compound 208] | < 10 | > 100 |  |
| COc1ccc2c(O[C@@H]3C[C@H]4C(=O)N[C@]5(C(=O)NS(=O)(=O)C6(C)CC6)C[C@H]5/C=C\CCCCC[C@H](Nc5ccc(F)c(OC(F)(F)F)c5)C(=O)N4C3)cc(-c3nc(C(C)C)cs3)nc2c1C (single isomer, unassigned) [Compound 601] | < 10 | < 10 |  |
| CC(C)n1c(O[C@@H]2C[C@H]3C(=O)N[C@]4(C(=O)NS(=O)(=O)N(C)C)C[C@H]4/C=C\CCCCC[C@H](NC(=O)OC(C)(C)C)C(=O)N3C2)nc2c(NC(=O)NCCc3ccccc3)cccc21 [Compound 1424] | < 10 |  | < 10 |
| CC(C)n1c(O[C@@H]2C[C@H]3C(=O)N[C@]4(C(=O)NS(=O)(=O)N(C)C)C[C@H]4/C=C\CCCCC[C@H](NC(=O)OC(C)(C)C)C(=O)N3C2)nc2c(NC(=O)OCCc3ccccc3)cccc21 [Compound 1429] | < 10 | < 10 |  |
| CC(C)n1c(O[C@@H]2C[C@H]3C(=O)N[C@]4(C(=O)NS(=O)(=O)C5(C)CC5)C[C@H]4/C=C\CCCCC[C@H](Nc4ccc(F)cc4)C(=O)N3C2)nc2c(-c3nc(C4CCCC4)cs3)cccc21 [Compound 1728] | < 10 | > 100 |  |
| CC1(S(=O)(=O)NC(=O)[C@@]23C[C@H]2/C=C\CCCCC[C@H](Nc2ccccc2)C(=O)N2C[C@H](n4ncc(-c5ccccc5)n4)C[C@H]2C(=O)N3)CC1 [Compound 1503] | < 10 | > 100 |  |
| CC(C)n1c(O[C@@H]2C[C@H]3C(=O)N[C@]4(C(=O)NS(=O)(=O)C5(C)CC5)C[C@H]4/C=C\CCCCC[C@H](Nc4ccc(C(F)(F)F)cc4)C(=O)N3C2)nc2cncnc21 [Compound 501] | < 10 | > 100 |  |
| COc1ccc(-c2nn([C@@H]3C[C@H]4C(=O)N[C@]5(C(=O)NS(=O)(=O)C6(C)CC6)C[C@H]5/C=C\CCCCC[C@H](Nc5ccccc5)C(=O)N4C3)nc2-c2nccs2)cc1 [Compound 1506] | < 10 | 10 to 100 |  |
| CC(C)n1c(O[C@@H]2C[C@H]3C(=O)N[C@]4(C(=O)NS(=O)(=O)N(C)C)C[C@H]4/C=C\CCCCC[C@H](NC(=O)OC(C)(C)C)C(=O)N3C2)nc2c(-c3csc(N4CCCCC4)n3)cccc21 [Compound 1742] | < 10 | 10 to 100 |  |
| CN(C)S(=O)(=O)NC(=O)[C@@]12C[C@H]1/C=C\CCCCC[C@H](NC(=O)OC(C)(C)C)C(=O)N1C[C@H](Oc3nc4ccccc4nc3C(C)(C)C)C[C@H]1C(=O)N2 [Compound 304] | < 10 | 10 to 100 |  |
| Cc1sc(-c2cccc3c2nc(O[C@@H]2C[C@H]4C(=O)N[C@]5(C(=O)NS(=O)(=O)C6CC6)C[C@H]5/C=C\CCCCC[C@H](NC(=O)OC(C)(C)C)C(=O)N4C2)n3C(C)C)nc1C(C)C [Compound 219] | < 10 | < 10 |  |
| CC(C)n1c(O[C@@H]2C[C@H]3C(=O)N[C@]4(C(=O)NS(=O)(=O)C5(C)CC5)C[C@H]4/C=C\CCCCC[C@H](Nc4ccccc4)C(=O)N3C2)nc2c(N)cccc21 [Compound 1408] | < 10 | 10 to 100 |  |
| CC(C)n1c(O[C@@H]2C[C@H]3C(=O)N[C@]4(C(=O)NS(=O)(=O)C5CC5)C[C@H]4/C=C\CCCCC[C@H](NC(=O)OC(C)(C)C)C(=O)N3C2)nc2c(-c3nc(C4CCCC4)cs3)cccc21 [Compound 1434] | < 10 | < 10 |  |
| CN(C)S(=O)(=O)NC(=O)[C@@]12C[C@H]1/C=C\CCCCC[C@H](NC(=O)OC(C)(C)C)C(=O)N1C[C@H](Oc3nc4ccccc4n3C(C)(C)C)C[C@H]1C(=O)N2 [Compound 206] | < 10 | < 10 |  |
| COc1ccc2c(O[C@@H]3C[C@H]4C(=O)N[C@]5(C(=O)NS(=O)(=O)C6(C)CC6)C[C@H]5/C=C\CCCCC[C@H](Nc5ccc(F)c(F)c5)C(=O)N4C3)cc(-c3nc(C(C)C)cs3)nc2c1C [Compound 1001] | < 10 | < 10 |  |
| CN(C)S(=O)(=O)NC(=O)[C@@]12C[C@H]1/C=C\CCCCC[C@H](NC(=O)OC(C)(C)C)C(=O)N1C[C@H](Oc3cnc4ccccc4n3)C[C@H]1C(=O)N2 [Compound 301] | < 10 | 10 to 100 |  |

| Structure (SMILES) | IC50 (NS3/NS4 complexes) [nM] | EC50 (hepatitis C replicon; [1]) [nM] | EC50 (hepatitis C replicon) [nM] |
| --- | --- | --- | --- |
| CC(C)n1c(O[C@@H]2C[C@H]3C(=O)N[C@]4(C(=O)NS(=O)(=O)C5(C)CC5)C[C@H]4/C=C\CCCCC[C@H](NC(=O)OC(C)(C)C)C(=O)N3C2)nc2c(-c3nc4c(s3)CCCC4(C)C)cccc21 [Compound 1774] | < 10 | 10 to 100 |  |
| COc1ccc2c(O[C@@H]3C[C@H]4C(=O)N[C@]5(C(=O)NS(=O)(=O)C6(C)CC6)C[C@H]5/C=C\CCCCC[C@H](Nc5cccc(C(=O)N6CCN(C(c7ccccc7)c7ccccc7)CC6)c5)C(=O)N4C3)cc(-c3nc(C(C)C)cs3)nc2c1C [Compound 114] | < 10 | < 10 |  |
| CC(C)c1csc(-c2cccc3c2nc(O[C@@H]2C[C@H]4C(=O)N[C@]5(C(=O)NS(=O)(=O)C6(C)CC6)C[C@H]5/C=C\CCCCC[C@H](Nc5nccs5)C(=O)N4C2)n3C(C)C)n1 [Compound 1418] | < 10 | < 10 |  |
| COc1ccc2c(O[C@@H]3C[C@H]4C(=O)N[C@]5(C(=O)NS(=O)(=O)C6(C)CC6)C[C@H]5/C=C\CCCCC[C@H](Nc5cccc(C(=O)N6CCN(C(=O)c7ccco7)CC6)c5)C(=O)N4C3)cc(-c3nc(C(C)C)cs3)nc2c1C [Compound 121] | < 10 | 10 to 100 |  |
| CC(C)n1c(O[C@@H]2C[C@H]3C(=O)N[C@]4(C(=O)NS(=O)(=O)N(C)C)C[C@H]4/C=C\CCCCC[C@H](NC(=O)OC(C)(C)C)C(=O)N3C2)nc2c(-c3ccccc3)cccc21 [Compound 210] | < 10 | < 10 |  |
| CC(C)n1c(O[C@@H]2C[C@H]3C(=O)N[C@]4(C(=O)NS(=O)(=O)N(C)C)C[C@H]4/C=C\CCCCC[C@H](NC(=O)OC(C)(C)C)C(=O)N3C2)nc2c(C(=O)N(C)C)cccc21 [Compound 279] | < 10 | > 100 |  |
| CC(C)c1nc2ccccc2nc1O[C@@H]1C[C@H]2C(=O)N[C@]3(C(=O)NS(=O)(=O)C4(C)CC4)C[C@H]3/C=C\CCCCC[C@H](Nc3ccccc3)C(=O)N2C1 [Compound 311] | < 10 | 10 to 100 |  |
| CC(C)NC(=O)c1cccc2c1nc(O[C@@H]1C[C@H]3C(=O)N[C@]4(C(=O)NS(=O)(=O)N(C)C)C[C@H]4/C=C\CCCCC[C@H](NC(=O)OC(C)(C)C)C(=O)N3C1)n2C(C)C [Compound 281] | < 10 | < 10 |  |
| CN(C)S(=O)(=O)NC(=O)[C@@]12C[C@H]1/C=C\CCCCC[C@H](NC(=O)OC(C)(C)C)C(=O)N1C[C@H](Oc3nc4ccccc4nc3C(F)(F)F)C[C@H]1C(=O)N2 [Compound 303] | < 10 | < 10 |  |
| CC(C)n1c(O[C@@H]2C[C@H]3C(=O)N[C@]4(C(=O)NS(=O)(=O)N(C)C)C[C@H]4/C=C\CCCCC[C@H](NC(=O)OC(C)(C)C)C(=O)N3C2)nc2c(-c3csc(N4CCOCC4)n3)cccc21 [Compound 1741] | < 10 | < 10 |  |
| CCc1cccc2c1nc(O[C@@H]1C[C@H]3C(=O)N[C@]4(C(=O)NS(=O)(=O)N(C)C)C[C@H]4/C=C\CCCCC[C@H](NC(=O)OC(C)(C)C)C(=O)N3C1)n2C(C)C [Compound 266] | < 10 | < 10 |  |
| CCCn1c(O[C@@H]2C[C@H]3C(=O)N[C@]4(C(=O)NS(=O)(=O)N(C)C)C[C@H]4/C=C\CCCCC[C@H](NC(=O)OC(C)(C)C)C(=O)N3C2)nc2ccccc21 [Compound 1223] | < 10 | < 10 |  |
| CC(C)n1c(O[C@@H]2C[C@H]3C(=O)N[C@]4(C(=O)NS(=O)(=O)C5(C)CC5)C[C@H]4/C=C\CCCCC[C@H](NC(=O)OC(C)(C)C)C(=O)N3C2)nc2c(-c3ncco3)cccc21 [Compound 235] | < 10 | < 10 |  |
| Cc1sc(-c2cccc3c2nc(O[C@@H]2C[C@H]4C(=O)N[C@]5(C(=O)NS(=O)(=O)N(C)C)C[C@H]5/C=C\CCCCC[C@H](NC(=O)OC(C)(C)C)C(=O)N4C2)n3C(C)C)nc1C(C)C [Compound 231] | < 10 | 10 to 100 |  |
| CC(C)n1c(O[C@@H]2C[C@H]3C(=O)N[C@]4(C(=O)NS(=O)(=O)N(C)C)C[C@H]4/C=C\CCCCC[C@H](NC(=O)OC(C)(C)C)C(=O)N3C2)nc2c(-c3cccnc3)cccc21 [Compound 1738] |  | < 10 |  |
| CC(C)c1csc(-c2cccc3c2nc(O[C@@H]2C[C@H]4C(=O)N[C@]5(C(=O)NS(=O)(=O)C6(C)CC6)C[C@H]5/C=C\CCCCC[C@H](NC(=O)OC5C[C@@H]6C[C@@H]6C5)C(=O)N4C2)n3C(C)C)n1 (some centres unmarked) [Compound 1411] |  | 10 to 100 |  |
